The source of these data is the METLIN SMRT retention time set (Domingo-Almenara et al. 2019).

This data set can be described thus: gradient 5% acetonitrile 3 min, to 50% in 2 min, to 85% in 15 min, held 3 min, 100 µL/min. The note with it: column: Zorbax Extend-C18 2.1 x 50 mm; eluents: water / acetonitrile, 0.1% formic acid. In outline:
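Data were gathered over 3 months by HPLC coupled to a quadrupole time-of-flight mass spectrometer, operated in positive and negative ionization mode. Mixtures of ~100 pure standards ran on a Zorbax Extend-C18 column (2.1 × 50 mm, 1.8 μm) at 100 μL/min, with water and acetonitrile each containing 0.1% formic acid and dead and dwell volumes of 40 μL and 900 μL. Retention time was read from adduct peaks picked by computer and checked manually.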
As for `Cc1ccc(-c2noc(CN3N=NC4C(=O)N(c5ccc(C)c(Cl)c5)C(=O)C43)n2)cc1` (centres undefined), the RP-LC retention time was 1100 s. In the case of `Cc1nn(CC(=O)NCCN(C)Cc2ccccc2)c(=O)c2noc(C)c12`, the RP-LC retention time was 595 s.

`COC(=O)c1ccc(NC(=O)N2CC(N(C3CCOCC3)S(C)(=O)=O)C2)cc1` showed an RP-LC retention time of 686 s.

Consider `CCn1c(=O)sc2cc(S(=O)(=O)N3CCC(C(=O)NCc4ccc(C)o4)CC3)ccc21`, for which the RP-LC retention time is 861 s. `COc1ccc(OC)c(NC(=O)N(C)CCc2noc(COc3ccc(Cl)cc3)n2)c1` had an RP-LC retention time of 1000 s. Next, `CCc1nn2c(CNS(=O)(=O)c3ccc(OC)cc3)c(-c3ccccc3)nc2s1`: 886 s; `CC(C)N(C(=O)Cn1c(C2CC(=O)N(C(C)(C)C)C2)nc2ccccc21)c1ccccc1` (centres undefined): 702 s.

`Cc1ccc(-c2noc(CCN3CCN(c4ncccn4)CC3)n2)cc1` gave an RP-LC retention time of 677 s. Compound `COc1ccc(CNC(=O)c2cc3sccc3n2C)cc1` displayed an RP-LC retention time of 894 s. Next, `Cc1noc(C2CCCCN2C(=O)c2cc(-c3ccccc3)n[nH]2)n1` (centres undefined): 796 s; `O=C(Nc1ccc(OC(F)(F)F)cc1)C(=O)Nc1cccc([N+](=O)[O-])c1`: 1030 s. For `Cc1ccc(-n2c(N3CCCC(C(=O)NCc4cccs4)C3)nc3ccsc3c2=O)cc1` (centres undefined), the RP-LC retention time came to 880 s. For `COc1ccc(C)cc1NC(=O)N1C[C@H](c2nc(-c3ccncc3)no2)[C@@H](C)C1` the value was 876 s; for `COc1ccc(OC)c(NC(=O)CN2CCc3[nH]c4c(C)cc(F)cc4c(=O)c3C2)c1`, 640 s; for `COc1ccc(OCC(=O)N2CCN(c3ccc(-c4nc(C)c(C)s4)cn3)CC2)cc1`, 855 s. For `O=C(c1cccc2c1CCN2C(=O)C1CC1)N1CCCCC1`, the RP-LC retention time was found to be 746 s. In the case of `CCOCc1nc(C2CCCN2C(=O)Nc2ccsc2C(=O)OC)no1` (centres undefined), the RP-LC retention time stood at 626 s.

`O=C(c1nc(-c2cnccn2)no1)N1CCc2ccccc21` registered an RP-LC retention time of 740 s. In turn, `COc1ccc(C(O)CN2CCN(c3ncccn3)CC2)cc1` (centres undefined) had an RP-LC retention time of 747 s.

`O=C(Cn1cnc2ccccc21)Nc1nc2c(s1)C(=O)CCC2` showed an RP-LC retention time of 558 s. Compound `CCCN1CCN(C(=O)C2=NN(c3ccc(C)cc3)c3ncccc3S2(=O)=O)CC1` showed an RP-LC retention time of 643 s. Next, `O=C(Cc1ccc(Cl)cc1)N1CCCn2nc(-c3ccc(Cl)cc3)cc2C1`: 1050 s; `O=C(C1CCCCCC1)N1CCC2(CC1)CC(O)CCO2` (centres undefined): 681 s; `CCOc1ccccc1-n1ccn(Cc2nc(-c3ccc(C)c(C)c3)no2)c(=O)c1=O`: 958 s.

`O=C(Cc1cc(-c2cc3ccccc3o2)on1)NCCC1=CCCCC1` registered an RP-LC retention time of 1060 s. For `Cc1cc2c(=O)n(CC(=O)Nc3ccc(Cl)cc3C)ccc2s1`, the RP-LC retention time turned out to be 833 s.

In the case of `Cc1ccc(N2CC(C(=O)NC(C)C)CC2=O)cc1` (centres undefined), the RP-LC retention time worked out at 712 s. For `O=C(Nc1ccc2nc3n(c(=O)c2c1)CCCC3)c1cc2ccccc2[nH]1` the value was 720 s.

`CC1(C)CC(=O)c2cn(-c3ccccc3)c(=O)c(C(=O)N3CCOCC3)c2C1` returned an RP-LC retention time of 694 s. For `COc1ccccc1OCCC1CCN(S(=O)(=O)c2c(C)nn(C)c2C)C1` (centres undefined), the RP-LC retention time came to 861 s. As for `CCCC1=Nc2cc(C(=O)N3CCN(c4ccccn4)CC3)ccc2Sc2ccc(C)cc21`, the RP-LC retention time is 802 s. `Cc1nc(N2CCN(c3ccccn3)CC2)nc2c1C(=O)CC(/C=C/c1ccccc1)C2` (centres undefined) gave an RP-LC retention time of 856 s. Next, `Cc1sc(C)c(S(=O)(=O)NCc2ccc3c(c2)OCO3)c1-c1cc(C(F)(F)F)on1`: 1120 s; `Cc1nc(-c2ccc3c(c2)n(CC(=O)NC2CCCc4ccccc42)c(=O)n3C(C)C)no1` (centres undefined): 912 s; `Cc1noc(-c2ccnc(-n3ncc(C(=O)N4CCCCC4)c3C)c2)n1`: 841 s. Regarding `COc1cccc(CCC(=O)NC(C)C(=O)Nc2nc3ccccc3[nH]2)c1` (centres undefined), the RP-LC retention time was found to be 660 s. Take `CC(C)n1cc(S(=O)(=O)Nc2ccc(Cl)cc2)c2cccnc21`: the RP-LC retention time came out at 862 s.

For `CCCC(=O)Nc1ccc2c(c1)CN(C(=O)c1ccc(Cl)cc1)C(C(=O)N(C)C)C2` (centres undefined), the RP-LC retention time was 748 s. Consider `O=C(CN1CCCc2nc(C3CC3)ncc2C1=O)NCc1cccs1`, for which the RP-LC retention time stood at 682 s. On to `CCN(CC)CCOC(=O)c1cc(Cl)c(N)cc1OC`, for which the RP-LC retention time was 647 s. In turn, `COc1cc(CN2CCCC2c2cc(C)on2)cc(OC)c1O` (centres undefined) yielded an RP-LC retention time of 582 s. Next, `O=C(Cn1nc2n(c1=O)CCCCC2)NCc1ccccc1Cl`: 719 s. `COc1ccc(-c2cn3ccn(-c4cccc(Cl)c4)c(=O)c3n2)cc1`: the RP-LC retention time is 837 s. Compound `CCOc1ccc(-c2noc(CN3C(=O)COc4ccc(C)cc43)n2)cc1OC` had an RP-LC retention time of 1010 s.

As to `Cc1ccc(-c2nnc(-c3ccc(Cl)c(S(=O)(=O)N4CCCCC4)c3)o2)cc1`, the RP-LC retention time was found to be 1250 s. `O=C(c1ccc(N2CCCCC2)c(S(=O)(=O)N2CCCCC2)c1)N1CCN(c2ccccn2)CC1` yielded an RP-LC retention time of 813 s. For `CC(=O)N1C[C@@H]2CCCN3CCC[C@@H]([C@H]23)[C@H]1CCCC(=O)NCC(C)C` the value was 577 s; for `CNC(=O)c1cc[nH]c1C1CCCN(C(=O)C2CC=CCC2)C1` (centres undefined), 672 s. `CC1CCN(C(=O)c2ccc(Cn3cncn3)cc2)CC1` yielded an RP-LC retention time of 672 s.

Regarding `O=C(NCCCN1CCC(Cc2ccccc2)CC1)C1CCCN(S(=O)(=O)N2CCOCC2)C1` (centres undefined), the RP-LC retention time is 660 s. For `CCCc1nc(-c2c(C)cc(C)nc2NC(=O)c2ccccc2Cl)no1` the value was 934 s. Next, `Cc1[nH]c(C(=O)N2CCCC(C(=O)NCCN3CCOCC3)C2)c(C)c1C(=O)OC(C)C` (centres undefined): 607 s. `CCCN1CCN(c2ncc3c(n2)CCN(Cc2cc(F)cc(F)c2)C3)CC1` showed an RP-LC retention time of 549 s. For `COc1cccc(N2CCN(C(=O)Cn3ccc4c(SCc5ccc(F)cc5)nccc43)CC2)c1` the value was 795 s; for `COc1cc([C@@H]2c3cc4c(cc3[C@H](O)[C@@H](CO)[C@@H]2C(=O)NCC2CC2)OCO4)cc(OC)c1OC`, 666 s; for `COCCn1cc(CCNC(=O)Nc2cc(F)c(F)c(F)c2)c2cccnc21`, 800 s.

In turn, `Cc1ccc(-c2csc(Cc3nc(-c4ccccc4Cl)no3)n2)cc1` yielded an RP-LC retention time of 1280 s. The compound `CCn1cc(C)c(C(=O)O)c1CC(=O)NCc1cccs1` came in with an RP-LC retention time of 733 s.

As for `CCN1c2ccc(C)cc2C(=O)NC12CCN(C(=O)c1cc(OC)cc(OC)c1)CC2`, the RP-LC retention time worked out at 828 s. The compound `O=C(NCCN1CCOCC1)c1nc2ccccn2c1-c1ccc(Cl)cc1` returned an RP-LC retention time of 647 s. `CCN1CCCn2cc(S(=O)(=O)Nc3ccccc3)cc2C1=O`: the RP-LC retention time is 666 s. Take `O=C(NCCc1csc(-c2ccccc2)n1)c1ccccc1C(F)(F)F`: the RP-LC retention time was 883 s. In turn, `N#Cc1ccc(CN2C[C@@H]3C(=O)N(CCN4CCc5ccccc5C4)C(=O)[C@@H]3C2)cc1` had an RP-LC retention time of 618 s. As for `CC(CCNC(=O)Cn1c2ccccc2c2cnn(C)c(=O)c21)N1CCCC1` (centres undefined), the RP-LC retention time was found to be 595 s. Next, `O=C(COc1ccccc1)Nc1nc(-c2ccccc2)cs1`: 1050 s; `CC(=O)N1c2ccc(S(=O)(=O)N3CCC(C(=O)Nc4cccnc4)CC3)cc2CC1C` (centres undefined): 617 s; `C=Cc1ccc(CN2CCCN(c3ncccc3-c3nc(C4CC4)no3)CC2)cc1`: 757 s.

As to `CCOc1ccccc1N1CCN(C(=O)Cn2ccc3c(c(C)nn3-c3ccccc3)c2=O)CC1`, the RP-LC retention time stood at 844 s.

Consider `Cn1cc(C(=O)NCc2ccc3c(c2)OCO3)c2cccnc21`, for which the RP-LC retention time was found to be 706 s. In turn, `CCc1noc([C@@H]2CC(F)(F)CN2C(=O)c2ccoc2C)n1` showed an RP-LC retention time of 833 s. `CCCn1c(=O)c(N2CCC(NC(=O)NCc3cccc(F)c3)CC2)nc2ccccc21` showed an RP-LC retention time of 959 s. `O=C(NCCn1nnc2cc(C(=O)N3CCCCC3)ccc21)NC1CCCCC1` displayed an RP-LC retention time of 707 s. `Cc1cc(-c2nn3c(COc4ccccc4)nnc3s2)no1`: the RP-LC retention time came out at 855 s.

On to `COc1ccc(S(=O)(=O)N2CCCC(C(=O)NC3CC3)C2)cc1OC` (centres undefined), for which the RP-LC retention time came to 702 s. As to `COc1ccc(-c2nc3cc(C)ccn3c2NC(=O)c2ccc(Br)cc2)cc1`, the RP-LC retention time was 727 s.

With `CCN1C(=O)C2(CCN(S(=O)(=O)c3ccc(C(F)(F)F)cc3)CC2)c2ccccc21`, the RP-LC retention time turned out to be 1130 s. Consider `CC(C)(c1ccccc1)c1cc(CN2CCOCC2)c(O)c(CN2CCOCC2)c1`, for which the RP-LC retention time stood at 575 s. For `CCOC(=O)N1CCN(C(=O)Cc2csc(NC(=O)c3cnccn3)n2)CC1` the value was 598 s.

On to `CC(=O)Nc1c(-c2ccccn2)nsc1C(=O)N1CCC(C)CC1`, for which the RP-LC retention time came to 849 s.
